From patent publication US20260146035A1, “FUSED BICYCLIC COMPOUNDS AND THEIR USE AS MER AND AXL INHIBITORS” (DONG-A ST CO., LTD., priority 2022, published 2026)

Legend:
[1] = molecular target: T1, human TYRO3 (455-end) (Homo sapiens, UniProt Q06418); assay: HTRF kinase activity biochemical assay, TYRO3; details: 10 μM ATP, 30 minutes pre-incubation; read-out: HTRF TYRO IC50
T1 construct: TYRO3 (455-end); purchased SignalChem, Canada
T1 sequence (Q06418 455-890 limits assumed): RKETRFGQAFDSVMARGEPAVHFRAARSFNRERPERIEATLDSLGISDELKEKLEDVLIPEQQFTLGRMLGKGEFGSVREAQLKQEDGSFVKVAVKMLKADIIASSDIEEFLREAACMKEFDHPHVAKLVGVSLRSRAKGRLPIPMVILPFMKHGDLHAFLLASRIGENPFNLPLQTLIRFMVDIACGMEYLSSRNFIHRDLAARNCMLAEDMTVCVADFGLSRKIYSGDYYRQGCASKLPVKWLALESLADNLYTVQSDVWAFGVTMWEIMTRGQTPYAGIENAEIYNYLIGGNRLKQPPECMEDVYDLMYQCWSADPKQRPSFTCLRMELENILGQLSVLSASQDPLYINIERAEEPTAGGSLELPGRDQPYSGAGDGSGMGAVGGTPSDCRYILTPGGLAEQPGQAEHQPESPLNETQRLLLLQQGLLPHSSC

[2] = molecular target: T2, human MER (528-end) (Homo sapiens, UniProt Q12866); assay: HTRF kinase activity biochemical assay, MER; details: 10 μM ATP, 30 minutes pre-incubation; read-out: HTRF MERTK IC50
T2 construct: human MER (528-end); purchased Camnabio, Japan
T2 sequence (Q12866 528-999 limits assumed): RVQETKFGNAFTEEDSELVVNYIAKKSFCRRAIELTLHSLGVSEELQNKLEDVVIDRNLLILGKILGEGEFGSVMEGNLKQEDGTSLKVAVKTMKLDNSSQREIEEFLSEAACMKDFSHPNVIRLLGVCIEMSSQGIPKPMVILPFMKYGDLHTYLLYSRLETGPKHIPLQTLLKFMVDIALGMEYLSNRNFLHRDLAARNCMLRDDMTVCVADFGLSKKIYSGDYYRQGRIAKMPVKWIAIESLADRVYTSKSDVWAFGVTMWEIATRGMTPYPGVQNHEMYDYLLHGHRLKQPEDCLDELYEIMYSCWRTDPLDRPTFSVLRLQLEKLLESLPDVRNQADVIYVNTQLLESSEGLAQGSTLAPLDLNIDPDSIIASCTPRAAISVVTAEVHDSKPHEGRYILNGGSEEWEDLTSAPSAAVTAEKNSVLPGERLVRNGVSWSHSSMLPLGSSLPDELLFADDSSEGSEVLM

[3] = molecular target: T3, human AXL (473-end) (Homo sapiens, UniProt P30530); assay: HTRF kinase activity biochemical assay, AXL; details: 10 μM ATP, 30 minutes pre-incubation
T3 construct: human AXL (473-end); purchased SignalChem, Canada
T3 sequence (P30530 473-894 limits assumed): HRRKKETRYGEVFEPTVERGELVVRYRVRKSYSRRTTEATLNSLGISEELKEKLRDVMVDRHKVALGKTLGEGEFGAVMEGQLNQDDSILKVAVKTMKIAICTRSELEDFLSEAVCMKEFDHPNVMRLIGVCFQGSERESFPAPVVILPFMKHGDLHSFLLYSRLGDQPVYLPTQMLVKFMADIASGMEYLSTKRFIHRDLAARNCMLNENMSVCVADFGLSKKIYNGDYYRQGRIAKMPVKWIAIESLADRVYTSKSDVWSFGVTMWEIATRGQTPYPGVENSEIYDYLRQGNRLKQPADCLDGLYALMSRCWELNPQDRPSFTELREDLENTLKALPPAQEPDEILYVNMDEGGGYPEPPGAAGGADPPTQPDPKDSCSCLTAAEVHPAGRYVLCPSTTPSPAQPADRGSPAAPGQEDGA

IC50 [1]	IC50 [2]	IC50 [3]	SMILES
100 to 1000 nM	< 10 nM	10 to 100 nM	CC1(C)CN(C2CCN(CCO)CC2)c2ccc(-c3ccc(CO[C@H]4COC[C@@H]4NC(=O)c4nc(-c5ccc(F)nc5)cnc4N)cc3)cc21 [Example 52, 3-amino-6-(6-fluoropyridin-3-yl)-N-{(3S,4R)-4-[(4-{1-[1-(2-hydroxyethyl)piperidin-4-yl]-3,3-dimethyl-2,3-dihydro-1H-indol-5-yl}phenyl)methoxy]oxolan-3-yl}pyrazine-2-carboxamide]
> 1000 nM	100 to 1000 nM	100 to 1000 nM	CN(C)CC(=O)N1CCc2cc(-c3ccc(CO[C@H]4CCC[C@@H]4NC(=O)c4cc(-c5cnn(C)c5)cnc4N)cc3)ccc21 [Example 2, 2-amino-N-{(1S,2S)-2-[(4-{1-[(dimethylamino)acetyl]-2,3-dihydro-1H-indol-5-yl}phenyl)methoxy]cyclopentyl}-5-(1-methyl-1H-pyrazol-4-yl)pyridine-3-carboxamide]
10 to 100 nM	< 10 nM	< 10 nM	Nc1ncc(-c2cncs2)cc1C(=O)N[C@H]1CCC[C@@H]1OCc1ccc(-c2ccc3c(c2)CC[C@@H]3N2CCN(CCO)CC2)cc1 [Example 176, 2-amino-N-{(1S,2S)-2-[(4-{(1S)-1-[4-(2-hydroxyethyl)piperazin-1-yl]-2,3-dihydro-1H-inden-5-yl}phenyl)methoxy]cyclopentyl}-5-(1,3-thiazol-5-yl)pyridine-3-carboxamide]
10 to 100 nM	< 10 nM	< 10 nM	Cn1cc(-c2cnc(N)c(C(=O)N[C@H]3CCC[C@@H]3OCc3ccc(-c4cnc5c(c4)C(C)(C)CN5C4CCN(CCO)CC4)cc3)c2)cn1 [Example 77, 2-amino-N-{(1S,2S)-2-[(4-{1-[1-(2-hydroxyethyl)piperidin-4-yl]-3,3-dimethyl-2,3-dihydro-1H-pyrrolo[2,3-b]pyridin-5-yl}phenyl)methoxy]cyclopentyl}-5-(1-methyl-1H-pyrazol-4-yl)pyridine-3-carboxamide]
> 1000 nM	10 to 100 nM	100 to 1000 nM	Cn1cc(-c2cnc(N)c(C(=O)N[C@H]3CCC[C@@H]3OCc3ccc(-c4ccc5c(N6CCN(CCO)CC6)coc5c4)cc3)c2)cn1 [Example 95, 2-amino-N-{(1S,2S)-2-[(4-{3-[4-(2-hydroxyethyl)piperazin-1-yl]-1-benzofuran-6-yl}phenyl)methoxy]cyclopentyl}-5-(1-methyl-1H-pyrazol-4-yl)pyridine-3-carboxamide]
> 1000 nM	> 1000 nM	> 1000 nM	Nc1ncc(-c2ccc(F)nc2)cc1C(=O)N[C@H]1CCC[C@@H]1OCc1ccc(-c2ccc3c(c2)C2(CC2)CN(C2CCN(CCO)CC2)C3)cc1 [Example 75, 6-amino-6′-fluoro-N-{(1S,2S)-2-[(4-{2′-[1-(2-hydroxyethyl)piperidin-4-yl]-2′,3′-dihydro-1′H-spiro[cyclopropane-1,4′-isoquinolin]-6′-yl}phenyl)methoxy]cyclopentyl}[3,3′-bipyridine]-5-carboxamide]
> 1000 nM	10 to 100 nM	10 to 100 nM	Cn1cc(-c2cnc(N)c(C(=O)N[C@H]3CCC[C@@H]3OCc3ccc(-c4ccc5c(c4)C(C)(C)C[C@H]5N4CCN(CCO)CC4)cc3)c2)cn1 [Example 96, 2-amino-N-{(1S,2S)-2-[(4-{(1R)-1-[4-(2-hydroxyethyl)piperazin-1-yl]-3,3-dimethyl-2,3-dihydro-1H-inden-5-yl}phenyl)methoxy]cyclopentyl}-5-(1-methyl-1H-pyrazol-4-yl)pyridine-3-carboxamide]
< 10 nM	< 10 nM	< 10 nM	Cn1cc(-c2cnc(N)c(C(=O)N[C@H]3CCC[C@@H]3OCc3ccc(-c4ccc5c(c4)C(C)(C)CN5C4CCN(CC(O)CO)CC4)cc3)c2)cn1 (stereo partly drawn) [Example 23, 2-amino-N-{(1S,2S)-2-[(4-{1-[1-(2,3-dihydroxypropyl)piperidin-4-yl]-3,3-dimethyl-2,3-dihydro-1H-indol-5-yl}phenyl)methoxy]cyclopentyl}-5-(1-methyl-1H-pyrazol-4-yl)pyridine-3-carboxamide]
